Assays:
[1] = tested on: Human immunodeficiency virus 1; experiment: Antiviral activity against Human immunodeficiency virus 1 NL4-3 infected human HeLa cells assessed as decrease in P24 expression at 100 uM after 72 hr by single cycle replication assay; assay type: functional; conditions: Human immunodeficiency virus 1, NL4-3, HeLa
[2] = Cytotoxicity against Homo sapiens (human) HeLa cells infected with HIV-1 NL4-3 assessed as cell viability at 100 uM by XTT assay; assay type: cell-based; conditions: read-out: Activity

Row | SMILES | inhibition at 100 µM [1] [%] | viability at 100 µM [2] [%]
1 | O=c1c(-c2nnc(-c3ccc(Cl)cc3)o2)cnc2ccccn12 | 26 | 94
2 | Nc1nnc(-c2cnc3ccccn3c2=O)o1 | – | 96
3 | O=c1c(-c2nnc(S)o2)cnc2ccccn12 | 11 | 100
4 | O=c1c(-c2nnc(-c3ccccc3)o2)cnc2ccccn12 | – | 98
5 | O=c1c(-c2nnc(-c3ccc(F)cc3)o2)cnc2ccccn12 | 18 | 100
6 | COc1ccc(-c2nnc(-c3cnc4ccccn4c3=O)o2)cc1 | – | 100
7 | Cc1ccc(-c2nnc(-c3cnc4ccccn4c3=O)o2)cc1 | 29 | 94
8 | O=c1c(-c2nnc(-c3ccccc3)s2)cnc2ccccn12 | 33 | 100
9 | O=c1c(-c2nnc(-c3ccc(F)cc3)s2)cnc2ccccn12 | 48 | 92
10 | O=c1c(-c2nnc(-c3ccc(Cl)cc3)s2)cnc2ccccn12 | 39 | 95
11 | COc1ccc(-c2nnc(-c3cnc4ccccn4c3=O)s2)cc1 | 28 | 97
12 | Cc1ccc(-c2nnc(-c3cnc4ccccn4c3=O)s2)cc1 | 51 | 93
13 | Cc1cn([C@H]2C[C@H](N=[N+]=[N-])[C@@H](CO)O2)c(=O)[nH]c1=O [ZIDOVUDINE] | 100 | 100

From ChEMBL document CHEMBL3044967, “Synthesis, biological evaluation, and molecular modeling studies of new 1,3,4-oxadiazole- and 1,3,4-thiadiazole-substituted 4-oxo-4H-pyrido[1,2-a]pyrimidines as anti-HIV-1 agents” (Med Chem Res, 2013)
